From paper PMC8373983, “Effect of salinity on the zinc(II) binding efficiency of siderophore functional groups and implications for salinity tolerance mechanisms in barley” (Scientific Reports, 2021)
Like-named read-outs stand apart in the source and are kept apart here.

Tests used:
[1] = set-up: method as in earlier work; conditions: cited from earlier work
[2] = cited from earlier work
[3] = Zinc(II) hydrolysis constants, potentiometric titration in NaCl; assay type: physicochemical; conditions: T = 298.1 K
Protocol: A 30 ml solution containing each ligand ([L] = 5 – 10 mM), NaCl and HCl was titrated with standard NaOH solutions. For the zinc(II)/ligand systems, the titrant solutions consisted of different amounts of ligand ([L] = 5 − 10 mM), zinc(II) ([Zn] = 0.5—5 mM) and a suitable amount of HCl and NaCl. All the measurements were carried out with an excess of the ligand, with respect to zinc(II) and at different zinc(II):ligand molar ratios. The selection of ratios investigated was determined by simulating titrations using Hyperquad Simulation and Speciation computer software (HySS)[41]. [Zn] and [L] were negligible compared to the background electrolyte concentrations. […] To account for the influence of zinc(II) hydrolysis in the zinc(II)/ligand systems, zinc(II) titrations were carried out separately at each ionic strength to determine the hydroxide constants so that these constants could be included in the equilibrium model used to refine the titration data. In these titrations, the zinc(II) concentration in the analyte solution was 0.7 mM.
The software program Hyperquad was used to determine the equilibrium model and to calculate pKa and stability constants from the potentiometric data set[43]. For each set of pKa constants or zinc(II):ligand ratio studied, at least two repeat titrations were performed. The titration curves for each system were treated as a single set when refining the stability constants. This meant that the refinement procedure was run on both curves at the same time to derive a single set of constants. The error reported on the stability constants is the standard deviation given in the Hyperquad output file. Examples of Hyperquad files for the zinc(II)/PYR system are provided on the Zenodo repository (https://doi.org/10.5281/zenodo.4641710).

[4] = parameter of ionic strength dependence

## CC(=O)N(O)CCCCCNC(=O)CCC(=O)N(O)CCCCCNC(=O)CCC(=O)N(O)CCCCCN [DFOB, desferrioxamine B]
[1]; 0.05 M NaCl, T = 298.1 K
  log β, 2H+ + L3− = H2L−: 20.94 ± 0.09
  log β, 3H+ + L3− = H3L: 30.05 ± 0.12
  log β, 4H+ + L3− = H4L+: 38.83 ± 0.14
  log β, H+ + L3− = HL2−: 11.07 ± 0.07
[1]; 0.15 M NaCl, T = 298.1 K
  log β, 2H+ + L3− = H2L−: 20.25 ± 0.06
  log β, 3H+ + L3− = H3L: 29.10 ± 0.09
  log β, 4H+ + L3− = H4L+: 37.46 ± 0.13
  log β, H+ + L3− = HL2−: 10.74 ± 0.04
[1]; 0.30 M NaCl, T = 298.1 K
  log β, 2H+ + L3− = H2L−: 19.84 ± 0.04
  log β, 3H+ + L3− = H3L: 28.61 ± 0.07
  log β, 4H+ + L3− = H4L+: 37.00 ± 0.10
  log β, H+ + L3− = HL2−: 10.36 ± .02
[1]; 0.70 M NaCl, T = 298.1 K
  log β, 2H+ + L3− = H2L−: 19.77 ± 0.04
  log β, 3H+ + L3− = H3L: 28.60 ± 0.08
  log β, 4H+ + L3− = H4L+: 36.97 ± 0.16
  log β, H+ + L3− = HL2−: 10.35 ± 0.02
[1]; 1.00 M NaCl, T = 298.1 K
  log β, 2H+ + L3− = H2L−: 19.77 ± 0.08
  log β, 3H+ + L3− = H3L: 28.57 ± 0.12
  log β, 4H+ + L3− = H4L+: 36.92 ± 0.14
  log β, H+ + L3− = HL2−: 10.14 ± 0.06
[1]; intrinsic, T = 298.1 K
  logβ^0, 2H+ + L3− = H2L−: 21.530 ± 0.006
  logβ^0, 3H+ + L3− = H3L: 30.691 ± 0.012
  logβ^0, 4H+ + L3− = H4L+: 39.250 ± 0.023
  logβ^0, H+ + L3− = HL2−: 11.491 ± 0.003
[1]; [4]
  C, 3H+ + L3− = H3L: 0.194 ± 0.012
[2]; 0.05 M NaCl, T = 298.1 K
  log β, Zn2+ + 2H+ + L3- = ZnH2L+: 29.30±0.13
  log β, Zn2+ + H+ + L3- = ZnHL: 21.55±0.11
  log β, Zn2+ + L3- = ZnL-: 11.67±0.06
[2]; 0.15 M NaCl, T = 298.1 K
  log β, Zn2+ + 2H+ + L3- = ZnH2L+: 27.81±0.05
  log β, Zn2+ + H+ + L3- = ZnHL: 19.85±0.04
  log β, Zn2+ + L3- = ZnL-: 9.91±0.02
[2]; 0.30 M NaCl, T = 298.1 K
  log β, Zn2+ + 2H+ + L3- = ZnH2L+: 27.42±0.08
  log β, Zn2+ + H+ + L3- = ZnHL: 19.85±0.06
  log β, Zn2+ + L3- = ZnL-: 9.97±0.04
[2]; 0.70 M NaCl, T = 298.1 K
  log β, Zn2+ + 2H+ + L3- = ZnH2L+: 27.19±0.12
  log β, Zn2+ + H+ + L3- = ZnHL: 19.34±0.09
  log β, Zn2+ + L3- = ZnL-: 9.39±0.05
[2]; 1.00 M NaCl, T = 298.1 K
  log β, Zn2+ + 2H+ + L3- = ZnH2L+: 27.25±0.08
  log β, Zn2+ + H+ + L3- = ZnHL: 19.38±0.06
  log β, Zn2+ + L3- = ZnL-: 9.32±0.04
[2]; between 0.05 and 1.00 M NaCl
  decrease of the 1:1 zinc(II) stability constant: 21%
[2]; intrinsic, T = 298.1 K
  logβ0, Zn2+ + 2H+ + L3- = ZnH2L+: 29.872±0.027
  logβ0, Zn2+ + H+ + L3- = ZnHL: 22.105±0.026
  logβ0, Zn2+ + L3- = ZnL-: 12.027±0.039
[2]; [4]
  C, Zn2+ + 2H+ + L3- = ZnH2L+: 0.009±0.051
  C, Zn2+ + H+ + L3- = ZnHL: -0.075±0.053
  C, Zn2+ + L3- = ZnL-: -0.486±0.077

## [Cl-].[Cl-].[Zn+2] [Zinc(II), ZnCl2]
[3]; 0.05 M NaCl
  log β, Zn2+ + 2OH- = [Zn(OH)2]: 15.40±0.06
  log β, Zn2+ + 3OH- = [Zn(OH)3]-: 25.16±0.09
[3]; 0.15 M NaCl
  log β, Zn2+ + 2OH- = [Zn(OH)2]: 15.76±0.01
  log β, Zn2+ + 3OH- = [Zn(OH)3]-: 26.15±0.04
[3]; 0.30 M NaCl
  log β, Zn2+ + 2OH- = [Zn(OH)2]: 15.77±0.01
  log β, Zn2+ + 3OH- = [Zn(OH)3]-: 26.10±0.03
[3]; 0.70 M NaCl
  log β, Zn2+ + 2OH- = [Zn(OH)2]: 15.93±0.01
  log β, Zn2+ + 3OH- = [Zn(OH)3]-: 26.51±0.04
[3]; 1.00 M NaCl
  log β, Zn2+ + 2OH- = [Zn(OH)2]: 16.05±0.01
  log β, Zn2+ + 3OH- = [Zn(OH)3]-: 26.56±0.03
